In patent US20240033200A1, “SEMI-PERMANENT TATTOOS” (Inkbox Ink Inc., priority 2020, published 2024):

Columns and labels:
[1] = Reaction with L-lysine (amino acids) to mimic skin binding; colour and UV-VIS of the dye formed; conditions: for color of solution 1 hr after the addition of L-lysine: 1 hr after L-lysine; for color produced upon reaction with amino acids: Additional Color Combinations; for color of solution after the addition of L-lysine: after addition of L-lysine ("Add Lysine"/"Lysine added"); for color of L-lysine reaction solution after dilution: after dilution (vial at left); for color of solution before the addition of L-lysine: before L-lysine (Time 0); for color of dye produced by reaction with L-lysine / λmax of dye produced after reaction with L-lysine: methanol, 2 equivalents L-lysine, room temperature; for color of dye produced by reaction with L-lysine: open air; for λmax of dye produced after reaction with L-lysine: open air (44 hours for Compound 1, overnight for others)
Method: Compound 1 was weighed out (0.03 mmol) into a small vial equipped with a magnetic stir bar. To this vial, 1 mL of methanol was added and stirred until solubilized. L-lysine was then added to the stirred solution (2 equivalents) and the reaction mixture was capped and stirred over 44 hours at room temperature. A needle was punctured through the vial cap to ensure the reaction is conducted under open air. This method produced a yellow dye with a λmax=436 nm. See also FIGS. 26A and 26B.
(§1) Compound 10 was weighed out (n=0.03 mmol) into a small vial equipped with a magnetic stir bar. To this, 1 mL of methanol was added and stirred until solubilized. L-lysine was then added to the stirred solution (2 equivalents) and the reaction mixture was capped and stirred overnight at room temperature. A needle was punctured through the vial cap to ensure the reaction is conducted under open air. This produced a yellow dye with a λmax=433 nm.
as §1, with “14” for “10”, “produces” for “produced”, “red” for “yellow”, “λmax=480” for “λmax=433”
(§2) Compound 11 was weighed out (n=0.03 mmol) into a small vial equipped with a magnetic stir bar. To this, 2.5 mL of methanol was added followed by L-lysine (0.06 mmol, 2 equivalents). The reaction mixture was stirred for 24 hours at room temperature under open air. Compound 11 and Compound 11+lysine were diluted with methanol to make 0.06 mM solutions for UV-VIS characterization.
as §2, with “13” for “11”, “1.5” for “2.5”, “13+lysine” for “11 and Compound 11+lysine”
as §2, with “5” for “11”, “(n=0.05” for “(n=0.03”, “(0.1” for “(0.06”, “5+lysine” for “11+lysine”, “0.1” for “0.06”
(§3) Compound 7 was weighed out (n=0.04 mmol) into a small vial equipped with a magnetic stir bar. To this, 2 mL of methanol was added followed by L-lysine (0.08 mmol, 2 equivalents). The reaction mixture was stirred for 24 hours at room temperature under open air. Compound 7 and Compound 7+lysine were diluted with methanol to make 0.1 and 0.15 mM solutions, respectively, for UV-VIS characterization.
as §3, with “Compound 9” for “Compound 7”, “out (n=0.03” for “out (n=0.04”, “this, 1.5” for “this, 2”, “L-lysine (0.06” for “L-lysine (0.08”, “Compound 9+lysine” for “Compound 7+lysine”
as §2, with “Genipin” for “Compound 11”, “1.5” for “2.5”, “Genipin+lysine” for “Compound 11 and Compound 11+lysine”
Compound 12 was weighed out (n=0.03 mmol) into a small vial equipped with a magnetic stir bar. To this, 1.5 mL of methanol was added followed by L-lysine (0.06 mmol, 2 equivalents). The reaction mixture was stirred for 24 hours at room temperature under open air. […]

[2] = Color profile of single, binary and ternary dye compositions (Table 5); conditions: total dye in the final formulation 0.008-0.40 mmol/g

Structure (SMILES)	color produced upon reaction with amino acids [1]	color of solution after the addition of L-lysine [1]	color of L-lysine reaction solution after dilution [1]	color of solution before the addition of L-lysine [1]	color of dye produced by reaction with L-lysine [1]	λmax of dye produced after reaction with L-lysine [1]	colors observed with L-lysine (FIG. 33) [1]	further results
COC(=O)C1=COC(O)C2C(C=O)=CCC12 (stereo not drawn) [Compound 1]	vibrant yellow	dark yellow	yellow	colorless	yellow	436 nm	yellow	color of solution 1 hr after the addition of L-lysine [1]: dark brown; color of solution at 44 hours after the addition of L-lysine ([1]; 44 hours): brown
COC(=O)C1=COC(OC(C)=O)C2C(C=O)=CCC12 (stereo not drawn) [Compound 2]								Color when reacted with amino acids [2]: Vibrant Red
COC(=O)C1=COC(O)[C@@H]2C(/C=C/c3ccccc3)=CC[C@H]12 (stereo partly drawn) [Compound 7]	vibrant red							
COC(=O)C1=COC(O)[C@@H]2C(/C=C/c3ccc([N+](=O)[O-])cc3)=CC[C@H]12 (stereo partly drawn) [Compound 9]	vibrant red							
COC(=O)C1=COC(O)C2C1CC1COC12O (stereo not drawn) [Compound 10]		light brown			yellow	433 nm		
CCOC(=O)C(=CC1=CCC2C(C(=O)OC)=COC(OC(C)=O)C12)C(=O)OCC (stereo not drawn) [Compound 11]	vibrant red							
COC(=O)C1=COC(O)C2C(C(=O)O)=CCC12 (stereo not drawn) [Compound 12]	vibrant green	light yellow	light yellow	colorless			light yellow	color of solution at 18 hours after the addition of L-lysine ([1]; 18 hours): dark brown
CCN(CC)C(=O)C1=CCC2C(C(=O)OC)=COC(O)C12 (stereo not drawn) [Compound 13]	vibrant orange							
O=C1C(O)=C(c2ccccc2)C(=O)c2ccccc21 [Compound 14, 2-Hydroxy-3-phenyl-1,4-Naphthalenedione]					red	480 nm		
COC(=O)C1=CO[C@@H](O)[C@@H]2C(CO)=CC[C@H]12 [genipin, reference compound]		yellow	light blue	colorless			light blue	color of solution 1 hr after the addition of L-lysine [1]: dark blue
